We go through ten compounds from patent US11801257B2, “Stimulation of an immune response by enantiomers of cationic lipids” (PDS Biotechnology Corporation, priority 2008, dated 2023).

The test system of one assay is DC2.4 dendritic cells. The note with it: cited from earlier work; for ability to stimulate the expression of CD 80 on DC 2.4 cells (relative potency): comparison by head group and acyl chain; for expression of CD80/CD86: liposomes, DC2.4 cells.
The next assay deals with TC-1 HPV-positive tumors. Briefly: TC-1 HPV-positive tumor growth in mice treated with cationic lipid/E7 compositions. It is filed as in vivo. The note with it: for ability to eradicate HPV-E7 positive tumors in tumor-bearing mice (tumor regression): lipid/E7 formulations, multiple lipid doses, summary statements. As for the experimental part:
TC-1 cells are C57BL/6 mouse lung […] cells that have been transformed with the HPV16 E6 and E7 oncogenes and activated H-ras. Cells were grown in RPMI medium (commercially available from Invitrogen of Carlsbad, CA) supplemented with 10% fetal bovine serum and 100 U/ml penicillin, and […] streptomycin. The MHC class I restricted peptide from the HPV 16 E7 protein (amino acid 11 to 20, YMLDLQPETT [SEQ. ID. NO. 1]) was synthesized by the University of Pittsburgh Peptide Synthesis Facility by solid state synthesis using an Advanced ChemTech model 200 peptide synthesizer and purified by HPLC.
In FIG. 12, mice were subcutaneously injected with TC-1 cells on day 0 in order to induce the growth of HPV-positive tumors. The DOTAP/E7 compositions were comprised of racemic mixtures of DOTAP. The mice received DOTAP/E7 compositions containing 10 μg E7 peptide subcutaneously on the opposite side of the abdomen on day 6.
In FIGS. 13 and 14, mice were subcutaneously injected with TC-1 cells on day 0 in order to induce the growth of HPV-positive tumors. The mice received R and S-DOTAP/E7 compositions containing 20 μg E7 peptide subcutaneously on the opposite side of the abdomen on day 6. R or S-DOTAP lipid concentrations in the complex varied from 3 to 600 nmole (3, 15, 30, 75, 100, 125, 150, 300, and 600 nmole).

In the next assay the test system is human T lymphocytes. The note with it: cited from earlier work.
The next assay concerns purified human T-cells. The experiment in a line: Induction of human T-cell proliferation by R and S enantiomers of DOTAP. It counts as cell-based. An excerpt: In the present studies, the induction of human T-cell proliferation by the R and S enantiomers of DOTAP was investigated and confirmed using purified T-cells obtained from Lonza, MA.
The subject of assay [1] is Human HLA-A2 dendritic cells. Briefly: Chemokine and cytokine production by human dendritic cells (Searchlight Protein Array Multiplex ELISA). It counts as cell-based. The note with it: 40 micromolar complex. As for the experimental part:
Human HLA-A2 dendritic cells (Lonza, Walkersville, MD), were treated and grown in culture as described above. On day 3 the cells were treated with 40 micromolar DOTAP/E7 complex or the potent immunostimulator lipopolysaccharide (LPS) at 50 micromolar concentrations (positive control). Medium from assay wells was removed and centrifuged at 1300 rpm in a microfuge for 5 minutes to pellet unattached dendritic cells. The supernatants were removed and treated with 10 microliters per ml of Calbiochem (La Jolla, CA) protease inhibitor cocktail set I (Cat. No. 539131) and stored frozen prior to analysis. Samples were analyzed for chemokine and cytokine expression by Searchlight Protein Array Multiplex ELISA assay [Pierce Biotechnology (Woburn, MA)].
In general terms: In an ELISA, binding on a coated surface is turned into a signal by an enzyme label.

[2] abbreviates: lipid 600 nmole with 20 μg E7 peptide, s.c. day 6 (S-DOTAP P<0.05).

Take `CCCCCCCCCCCCCC(=O)OCC(COP(=O)(OCC)OCC[N+](C)(C)C)OC(=O)CCCCCCCCCCCCC` (stereo not drawn) [DMEPC-14:0, 1,2-dimyristoyl-sn-glycero-3-ethylphosphocholine]: the “ability to stimulate the expression of CD 80 on DC 2.4 cells (relative potency)” value (“ability … (relative potency)” for short) in the assay with DC2.4 dendritic cells was “more potent”.
As to `CCCCCCCCCCCCCCOC(=O)CC[C@H](NC(=O)[C@@H](N)CCCCN)C(=O)OCCCCCCCCCCCCCC` [DMKD, O,O′-dimyristyl-N-lysyl-glutamate], the “expression of CD80/CD86” value with DC2.4 dendritic cells is recorded as “strongly stimulated”.
Consider `CCCCCCCCCCCCCCOC(=O)C[C@H](NC(=O)[C@@H](N)CCCCN)C(=O)OCCCCCCCCCCCCCC` [DMKE, O,O′-dimyristyl-N-lysyl aspartate], for which the “expression of CD80/CD86” value with DC2.4 dendritic cells is given as “strongly stimulated”.
Consider `CCCCCCCC/C=C\CCCCCCCC(=O)OC[C@@H](COP(=O)(OCC)OCC[N+](C)(C)C)OC(=O)CCCCCCC/C=C\CCCCCCCC` (stereo partly drawn) [DOEPC-18:1, 1,2-dioleoyl-sn-glycero-3-ethylphosphocholine], for which the “ability … (relative potency)” value with DC2.4 dendritic cells is recorded as “more potent”.
For the compound `CCCCCCCC/C=C\CCCCCCCC(=O)OC[C@H](COP(=O)(O)OCC(O)CO)OC(=O)CCCCCCC/C=C\CCCCCCCC` (stereo partly drawn) [DOPG, 1,2-dioleoyl-sn-glycero-3-phosphoglycerol], the “inhibition of tumor growth” value in the assay on TC-1 HPV-positive tumors (anionic lipid liposomes 150 nmole with antigen) is reported as “failed to significantly inhibit tumor growth”.
As for `CCCCCCCC/C=C\CCCCCCCC(=O)OC[C@@H](C[N+](C)(C)C)OC(=O)CCCCCCC/C=C\CCCCCCCC` [DOTAP, 1,2-dioleoyl-3-trimethylammoninum propane], the “inhibition of tumor growth” value in the assay with TC-1 HPV-positive tumors (liposomes 100 nmole, without E7 peptide) was “did not show significant inhibition of tumor growth”. The “tumor growth versus untreated control on day 23” value is recorded as “partial tumor inhibition effect” with TC-1 HPV-positive tumors (racemic DOTAP 15 nmole with 10 μg E7 peptide, s.c. day 6, P<0.05); “enhanced efficacy” with TC-1 HPV-positive tumors (racemic DOTAP 30 nmole with 10 μg E7 peptide, s.c. day 6, P<0.01); “most significant tumor regression effect” with TC-1 HPV-positive tumors (racemic DOTAP 75 nmole with 10 μg E7 peptide, s.c. day 6, P<0.001); “enhanced efficacy” in the assay on TC-1 HPV-positive tumors (racemic DOTAP 150 nmole with 10 μg E7 peptide, s.c. day 6, P<0.01); “enhanced efficacy” in the assay on TC-1 HPV-positive tumors (racemic DOTAP 300 nmole with 10 μg E7 peptide, s.c. day 6, P<0.01); “did not show anti-tumor activity” in the assay on TC-1 HPV-positive tumors (racemic DOTAP 600 nmole with 10 μg E7 peptide, s.c. day 6). For the same compound, the “expansion of T cell colonies in culture” value with human T lymphocytes (HLA-A2+ donor lymphocytes, three stimulations at 7-day interval, three days after third, versus medium control) is on record as “extensive expansion of T cell colonies”. In addition, the “ERK phosphorylation in T cells” value with human T lymphocytes is reported as “confirmed by ERK phosphorylation”. Also, the “expression of costimulatory molecule CD86 on human T lymphocytes” value with human T lymphocytes is reported as “induced expression of the costimulatory molecule, CD86”.
With `CCCCCCCCCCCC(=O)OC[C@H](COP(=O)(OCC)OCC[N+](C)(C)C)OC(=O)CCCCCCCCCCC` (stereo partly drawn) [DXEPC-12:0, 1,2-dilauroyl-sn-glycero-3-ethylphosphocholine], the “ability … (relative potency)” value with DC2.4 dendritic cells is on record as “more potent”.
For `CCCCCCCC/C=C\CCCCCCCC(=O)OC[C@@H](C[N+](C)(C)C)OC(=O)CCCCCCC/C=C\CCCCCCCC` [R-DOTAP, 1,2-dioleoyl-3-trimethylammoninum propane], the “tumor growth versus untreated control on day 23” value in the assay on TC-1 HPV-positive tumors (lipid 300 nmole with 20 μg E7 peptide, s.c. day 6, P<0.0001) was “most significant tumor regression efficacy”; in the assay with TC-1 HPV-positive tumors (setting [2]), “did not show significant anti-tumor activity”; in the assay on TC-1 HPV-positive tumors (lipid 75-150 nmole with 20 μg E7 peptide, s.c. day 6, P<0.001) it was “partial tumor inhibition effect”. In addition, in the assay with TC-1 HPV-positive tumors, the “ability to eradicate HPV-E7 positive tumors in tumor-bearing mice (tumor regression)” value is “results in tumor regression”. Moreover, the “induction of human T-cell proliferation” value in the assay on purified human T-cells is recorded as “induced more T-cell proliferation than S-DOTAP”. Also, in assay [1], the “potency in inducing chemokine and cytokine production relative to DOTAP racemic mixture” value is reported as “equivalent to or higher than”. The “potency in inducing chemokine and cytokine production, R versus S enantiomer” value is recorded as “more potent immune activator than S-DOTAP” in assay [1] and “higher potency” in assay [1] (listed as R-enantiomer).
`CCCCCCCC/C=C\CCCCCCCC(=O)OC[C@@H](C[N+](C)(C)C)OC(=O)CCCCCCC/C=C\CCCCCCCC` [S-DOTAP, 1,2-dioleoyl-3-trimethylammoninum propane]: the “tumor growth versus untreated control on day 23” value in the assay on TC-1 HPV-positive tumors (setting [2]) is “induced the slowest tumor growth”. In addition, in the assay with TC-1 HPV-positive tumors (lipid 3 to 600 nmole with 20 μg E7 peptide, s.c. day 6), the “tumor growth / tumor regression over the lipid dose series” value was “did not exhibit the ability to inhibit tumor growth and no tumor regression was observed”. In addition, the “ability to eradicate HPV-E7 positive tumors in tumor-bearing mice (tumor regression)” value with TC-1 HPV-positive tumors was “only limited tumor regression”. Also, the “dose range that effectively attenuates tumor growth” value with TC-1 HPV-positive tumors (rodent species, listed as S-enantiomer of DOTAP) is “effective over this same range of doses”. Further, in the assay on purified human T-cells, the “induction of human T-cell proliferation” value is “confirmed”.
“YMLDLQPETT (Human papillovirus subtype 16 E7 oncogene tumor-associated antigen MHC class I restricted peptide) [E7 peptide, ID; NO]”: the “inhibition of tumor growth” value in the assay with TC-1 HPV-positive tumors (peptide alone, no lipid (not shown)) is given as “did not show any inhibition of tumor growth”.
